Values joined by “and” are separate entries in the source; they are usually repeats but may differ in a detail not shown here. Identical values can stand only once. Toxic doses and inconclusive results are not listed. Cut-off read from the data, not from the text of the source: active = T/C of 150% or more; inactive = T/C below 125%. Square brackets hold non-standard residues; d marks the D form. Peptide text beside a SMILES is read from it. * marks the point of attachment. ξ: configuration not given here. Cbz = O=C(OCc1ccccc1)*; ξNle = CCCCC(N)C(=O)O
Test system: L1210 leukemia ip in BDF1 mice, survival T/C
Experiment: NCI In Vivo Anticancer Drug Screen. Data for tumor model L1210 Leukemia (intraperitoneal) in B6D2F1 (BDF1) mice
Settings: endpoint: mean survival time, higher = longer survival
How it was run: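 Antitumor effect is assessed in tumor-bearing animals. Survival in the compound arm is compared with a vehicle-dosed control arm and expressed as their quotient.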

[1] = dose: 100.0 mg/kg/injection, schedule: Q04DX003 (ip), vehicle: saline
[2] = dose: 200.0 mg/kg/injection, schedule: Q04DX003 (ip), vehicle: saline
[3] = dose: 100.0 mg/kg/injection, schedule: Q01DX001 (ip), vehicle: saline
[4] = dose: 200.0 mg/kg/injection, schedule: Q01DX001 (ip), vehicle: saline
[5] = dose: 400.0 mg/kg/injection, schedule: Q01DX001 (ip), vehicle: saline
[6] = dose: 100.0 mg/kg/injection, schedule: Q01DX009 (ip), vehicle: saline with Tween-80
[7] = dose: 200.0 mg/kg/injection, schedule: Q01DX009 (ip), vehicle: saline with Tween-80
[8] = dose: 25.0 mg/kg/injection, schedule: Q01DX001 (ip), vehicle: Klucel (hydroxypropylcellulose) (HPC)
[9] = dose: 50.0 mg/kg/injection, schedule: Q01DX001 (ip), vehicle: Klucel (hydroxypropylcellulose) (HPC)
[10] = dose: 100.0 mg/kg/injection, schedule: Q01DX001 (ip), vehicle: saline with Tween-80
[11] = dose: 100.0 mg/kg/injection, schedule: Q01DX009 (ip), vehicle: saline
[12] = dose: 200.0 mg/kg/injection, schedule: Q01DX009 (ip), vehicle: saline
[13] = dose: 100.0 mg/kg/injection, schedule: Q04DX003 (ip), vehicle: Klucel (hydroxypropylcellulose) (HPC)
[14] = dose: 100.0 mg/kg/injection, schedule: Q01DX001 (ip), vehicle: Klucel (hydroxypropylcellulose) (HPC)

Measured: T/C

CCO/C=N/NC(=O)CNC(=O)C=[N+]=[N-]
inactive: dose: 180.0 mg/kg/injection, schedule: Q01DX001 (ip), vehicle: water 100 % of control and 116 % of control | dose: 270.0 mg/kg/injection, schedule: Q01DX001 (ip), vehicle: water 101 % of control and 117 % of control | dose: 400.0 mg/kg/injection, schedule: Q01DX001 (ip), vehicle: water 105 % of control and 117 % of control | dose: 600.0 mg/kg/injection, schedule: Q01DX001 (ip), vehicle: water 106 % of control and 111 % of control

O=C(O)CC(Br)C(=O)O (stereo not given)
inactive: [1] 98 % of control | [2] 102 % of control

CC(C)C[CH2][Pb]([CH2]CC(C)C)([CH2]CC(C)C)[O]C(=O)C(Cl)(Cl)Cl
inactive: dose: 3.12 mg/kg/injection, schedule: Q01DX009 (ip), vehicle: Klucel (hydroxypropylcellulose) (HPC) 98 % of control | dose: 3.12 mg/kg/injection, schedule: Q04DX002 (ip), vehicle: Klucel (hydroxypropylcellulose) (HPC) 96 % of control | dose: 6.25 mg/kg/injection, schedule: Q01DX009 (ip), vehicle: Klucel (hydroxypropylcellulose) (HPC) 95 % of control | dose: 6.25 mg/kg/injection, schedule: Q04DX002 (ip), vehicle: Klucel (hydroxypropylcellulose) (HPC) 115 % of control | dose: 12.5 mg/kg/injection, schedule: Q01DX009 (ip), vehicle: Klucel (hydroxypropylcellulose) (HPC) 98 % of control | dose: 12.5 mg/kg/injection, schedule: Q04DX002 (ip), vehicle: Klucel (hydroxypropylcellulose) (HPC) 93 % of control and 87 % of control

N#Cc1ccc(S(N)(=O)=O)cc1
inactive: [3] 100 % of control | dose: 100.0 mg/kg/injection, schedule: Q01DX009 (ip), vehicle: acetone 98 % of control | dose: 100.0 mg/kg/injection, schedule: Q04DX003 (ip), vehicle: acetone 96 % of control | [4] 94 % of control | dose: 200.0 mg/kg/injection, schedule: Q04DX003 (ip), vehicle: acetone 94 % of control | [5] 120 % of control | dose: 400.0 mg/kg/injection, schedule: Q04DX003 (ip), vehicle: acetone 100 % of control

COc1ccc([N+](=O)[O-])c(O)c1C
inactive: [6] 90 % of control | [7] 96 % of control | dose: 400.0 mg/kg/injection, schedule: Q01DX009 (ip), vehicle: saline with Tween-80 106 % of control

CC(C)(C)CC(C)(C)N
inactive: dose: 12.5 mg/kg/injection, schedule: Q01DX001 (ip), vehicle: Klucel (hydroxypropylcellulose) (HPC) 100 % of control | [8] 92 % of control | [9] 92 % of control

c1ccc(Nc2nnnn2C2CCCCC2)cc1
inactive: [10] 104 % of control | dose: 200.0 mg/kg/injection, schedule: Q01DX001 (ip), vehicle: saline with Tween-80 95 % of control | dose: 400.0 mg/kg/injection, schedule: Q01DX001 (ip), vehicle: saline with Tween-80 93 % of control

CS(=O)(=O)Oc1cc(=O)oc2ccccc12
inactive: dose: 50.0 mg/kg/injection, schedule: Q01DX009 (ip), vehicle: Klucel (hydroxypropylcellulose) (HPC) 103 % of control | dose: 100.0 mg/kg/injection, schedule: Q01DX009 (ip), vehicle: Klucel (hydroxypropylcellulose) (HPC) 109 % of control

CCCC1C(CC)C=NN1Cc1ccccc1 (stereo not given)
inactive: dose: 50.0 mg/kg/injection, schedule: Q01DX001 (ip), vehicle: carboxymethylcellulose (CMC) 88 % of control | dose: 100.0 mg/kg/injection, schedule: Q01DX001 (ip), vehicle: carboxymethylcellulose (CMC) 100 % of control | dose: 200.0 mg/kg/injection, schedule: Q01DX001 (ip), vehicle: carboxymethylcellulose (CMC) 94 % of control | dose: 400.0 mg/kg/injection, schedule: Q01DX001 (ip), vehicle: carboxymethylcellulose (CMC) 92 % of control

Nc1nc(N)nc(-c2ccc(Cl)cc2)n1
inactive: dose: 25.0 mg/kg/injection, schedule: Q01DX001 (ip), vehicle: saline with Tween-80 96 % of control | dose: 50.0 mg/kg/injection, schedule: Q01DX001 (ip), vehicle: saline with Tween-80 98 % of control | [10] 101 % of control

CCC#CC(=O)OCCCC
inactive: dose: 100.0 mg/kg/injection, schedule: Q04DX002 (ip), vehicle: saline 93 % of control | dose: 200.0 mg/kg/injection, schedule: Q04DX002 (ip), vehicle: saline 104 % of control | dose: 400.0 mg/kg/injection, schedule: Q04DX002 (ip), vehicle: saline 96 % of control

c1ccc(-c2csc3n4ccccc4c[n+]23)cc1
inactive: dose: 6.25 mg/kg/injection, schedule: Q04DX002 (ip), vehicle: saline with Tween-80 97 % of control | dose: 12.5 mg/kg/injection, schedule: Q04DX002 (ip), vehicle: saline with Tween-80 100 % of control | dose: 25.0 mg/kg/injection, schedule: Q04DX002 (ip), vehicle: saline with Tween-80 93 % of control

C=CCCCCCCCCCNc1cc2c3c(c1)CCCN3CCC2
inactive: dose: 0.19 mg/kg/injection, schedule: Q01DX003 (ip), vehicle: saline 90 % of control | dose: 0.19 mg/kg/injection, schedule: Q01DX009 (ip), vehicle: saline 108 % of control | dose: 0.39 mg/kg/injection, schedule: Q01DX003 (ip), vehicle: saline 98 % of control | dose: 0.39 mg/kg/injection, schedule: Q01DX009 (ip), vehicle: saline 98 % of control | dose: 0.78 mg/kg/injection, schedule: Q01DX003 (ip), vehicle: saline 101 % of control

NNC(=O)CO
inactive: [11] 108 % of control | [1] 101 % of control | [12] 106 % of control | [2] 97 % of control | dose: 400.0 mg/kg/injection, schedule: Q01DX009 (ip), vehicle: saline 114 % of control | dose: 400.0 mg/kg/injection, schedule: Q04DX003 (ip), vehicle: saline 98 % of control

CC1C=CC(C(N)C(=O)O)O1 (stereo not given)
inactive: [3] 103 % of control | [4] 95 % of control | [5] 101 % of control

N=C(N)SCCN
inactive: [3] 97 % of control | [11] 103 % of control | [4] 90 % of control | [12] 111 % of control | [5] 118 % of control

COc1ccc(CCNC2C3CC4CC(C3)CC2C4)cc1OC (stereo not given)
inactive: [1] 94 % of control

CCCCC(NC(=O)CNC(=O)CNC(=O)OCc1ccccc1)C(=O)O (stereo not drawn) (Cbz-Gly-Gly-[ξNle]-OH)
inactive: [13] 108 % of control | dose: 200.0 mg/kg/injection, schedule: Q04DX003 (ip), vehicle: Klucel (hydroxypropylcellulose) (HPC) 104 % of control | dose: 400.0 mg/kg/injection, schedule: Q04DX003 (ip), vehicle: Klucel (hydroxypropylcellulose) (HPC) 96 % of control

CC(=O)Nc1ccc(-c2ccccc2)cc1
inactive: [14] 99 % of control | [6] 110 % of control | dose: 200.0 mg/kg/injection, schedule: Q01DX001 (ip), vehicle: Klucel (hydroxypropylcellulose) (HPC) 99 % of control | [7] 86 % of control

CC=C(C)c1ccccc1 (mixture of isomers)
inactive: dose: 50.0 mg/kg/injection, schedule: Q01DX009 (ip), vehicle: saline with Tween-80 118 % of control | [6] 123 % of control | [7] 94 % of control

O=N[O-].O=N[O-].[Co].[NH-]CC[N-]CC[N-]CC[NH-]
inactive: dose: 50.0 mg/kg/injection, schedule: Q01DX001 (ip), vehicle: saline 104 % of control

COc1cc2ccc(C(C)N)cc2cc1OC (stereo not given)
inactive: dose: 50.0 mg/kg/injection, schedule: Q01DX009 (ip), vehicle: saline 100 % of control | [11] 105 % of control | [1] 110 % of control | [12] 103 % of control | [2] 117 % of control

O=c1c(N=Nc2ccc(Cl)cc2)c(O)n(-c2ccccc2Cl)c(=S)n1-c1ccccc1
inactive: [8] 92 % of control | [9] 94 % of control | [14] 89 % of control

CC(=O)CC(=O)C(F)(F)F.CC(=O)CC(=O)C(F)(F)F.[O]=[V]
inactive: dose: 25.0 mg/kg/injection, schedule: Q04DX003 (ip), vehicle: Klucel (hydroxypropylcellulose) (HPC) 100 % of control | dose: 50.0 mg/kg/injection, schedule: Q04DX003 (ip), vehicle: Klucel (hydroxypropylcellulose) (HPC) 107 % of control | [13] 96 % of control

Fc1c(F)c(F)c(Oc2c(F)c(F)c(F)c(F)c2Oc2c(F)c(F)c(F)c(F)c2F)c(F)c1F
inactive: dose: 10.0 mg/kg/injection, schedule: Q01DX009 (ip), vehicle: Klucel (hydroxypropylcellulose) (HPC) 96 % of control | dose: 25.0 mg/kg/injection, schedule: Q01DX009 (ip), vehicle: Klucel (hydroxypropylcellulose) (HPC) 96 % of control | dose: 37.5 mg/kg/injection, schedule: Q01DX009 (ip), vehicle: Klucel (hydroxypropylcellulose) (HPC) 98 % of control | dose: 150.0 mg/kg/injection, schedule: Q01DX009 (ip), vehicle: Klucel (hydroxypropylcellulose) (HPC) 97 % of control | dose: 300.0 mg/kg/injection, schedule: Q01DX009 (ip), vehicle: Klucel (hydroxypropylcellulose) (HPC) 99 % of control
